This assay deals with L1210 leukemia ip in BDF1 mice, survival T/C. The experiment in a line: NCI In Vivo Anticancer Drug Screen. Data for tumor model L1210 Leukemia (intraperitoneal) in B6D2F1 (BDF1) mice. Conditions: endpoint: mean survival time, higher = longer survival. Summed up: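 Antitumor effect is assessed in tumor-bearing animals. Survival in the compound arm is compared with a vehicle-dosed control arm and expressed as their quotient.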

Where [1] appears, read: dose: 100.0 mg/kg/injection, schedule: Q01DX001 (ip), vehicle: saline.
[2] abbreviates: dose: 200.0 mg/kg/injection, schedule: Q01DX001 (ip), vehicle: saline.
[3] abbreviates: dose: 400.0 mg/kg/injection, schedule: Q01DX001 (ip), vehicle: saline.
Where [4] appears, read: dose: 100.0 mg/kg/injection, schedule: Q01DX009 (ip), vehicle: saline.
[5] abbreviates: dose: 200.0 mg/kg/injection, schedule: Q01DX009 (ip), vehicle: saline.
[6] abbreviates: dose: 400.0 mg/kg/injection, schedule: Q01DX009 (ip), vehicle: saline.
[7] abbreviates: dose: 100.0 mg/kg/injection, schedule: Q01DX009 (ip), vehicle: Klucel (hydroxypropylcellulose) (HPC).
The mark [8] stands for this setting: dose: 200.0 mg/kg/injection, schedule: Q01DX009 (ip), vehicle: Klucel (hydroxypropylcellulose) (HPC).
[9] abbreviates: dose: 50.0 mg/kg/injection, schedule: Q01DX001 (ip), vehicle: saline.

SMILES strings stand for the structures. Where “and” joins values, the source holds several entries; their conditions need not be identical. Equal values may be shown once. Inconclusive results and toxic doses are left out.

In the case of `C/C=C(\c1ccccc1)[N+](=O)[O-]`, the T/C is 100 % of control (dose: 12.5 mg/kg/injection, schedule: Q01DX001 (ip), vehicle: acetone); 98 % of control (dose: 12.5 mg/kg/injection, schedule: Q04DX003 (ip), vehicle: acetone); 98 % of control (dose: 18.75 mg/kg/injection, schedule: Q01DX009 (ip), vehicle: acetone); 92 % of control (dose: 25.0 mg/kg/injection, schedule: Q01DX001 (ip), vehicle: acetone); 98 % of control (dose: 25.0 mg/kg/injection, schedule: Q04DX003 (ip), vehicle: acetone); 106 % of control (dose: 37.5 mg/kg/injection, schedule: Q01DX009 (ip), vehicle: acetone). Moreover, the T/C by setting is: (dose: 50.0 mg/kg/injection, schedule: Q01DX001 (ip), vehicle: acetone) 97 % of control; (dose: 50.0 mg/kg/injection, schedule: Q04DX003 (ip), vehicle: acetone) 100 % of control; (dose: 75.0 mg/kg/injection, schedule: Q01DX009 (ip), vehicle: acetone) 88 % of control; (dose: 75.0 mg/kg/injection, schedule: Q04DX003 (ip), vehicle: saline) 94 % of control.
Turning to `CCOC(=O)CCCNCCCC(=O)OCC`, the T/C by setting is: under setting [1], 97 % of control; under setting [2], 103 % of control; under setting [3], 114 % of control.
For the molecule `C=CCN(C)/N=N/c1[nH]ncc1C(N)=O`, the T/C is 116 % of control (dose: 14.5 mg/kg/injection, schedule: Q01DX009 (ip), vehicle: saline with Tween-80); 114 % of control (dose: 44.0 mg/kg/injection, schedule: Q04DX003 (ip), vehicle: saline with Tween-80); 157 % of control (dose: 50.0 mg/kg/injection, schedule: Q01DX009 (ip), vehicle: saline with Tween-80); 119 % of control (dose: 50.0 mg/kg/injection, schedule: Q04DX003 (ip), vehicle: saline with Tween-80); 114 % of control (dose: 67.0 mg/kg/injection, schedule: Q04DX003 (ip), vehicle: saline with Tween-80); 109 % of control (dose: 100.0 mg/kg/injection, schedule: Q01DX001 (ip), vehicle: saline with Tween-80). The T/C by setting is: (dose: 100.0 mg/kg/injection, schedule: Q01DX009 (ip), vehicle: saline with Tween-80) 154 % of control; (dose: 200.0 mg/kg/injection, schedule: Q01DX009 (ip), vehicle: saline with Tween-80) 88 % of control.
As for `O=C(NNc1ccccc1)NC1OCC(O)C(O)C1O` (stereo not drawn), the T/C is, setting by setting: under setting [4], 92 % of control; (dose: 100.0 mg/kg/injection, schedule: Q04DX003 (ip), vehicle: water) 97 % of control; under setting [5], 92 % of control; (dose: 200.0 mg/kg/injection, schedule: Q04DX003 (ip), vehicle: water) 97 % of control; under setting [6], 93 % of control; (dose: 400.0 mg/kg/injection, schedule: Q04DX003 (ip), vehicle: water) 97 % of control.
Regarding `CNC(=O)OCc1c(COC(=O)NC)c(-c2ccc(OC)cc2)n2c1CCC2`, the T/C runs as follows: (dose: 50.0 mg/kg/injection, schedule: Q01DX009 (ip), vehicle: Klucel (hydroxypropylcellulose) (HPC)) 109 % of control; under setting [7], 117 % of control; under setting [8], 98 % of control.
In the case of `CC(C)CSC(C(O)C(O)C(O)CO)n1ccc(N)nc1=O` (stereo not drawn), the T/C runs as follows: (dose: 100.0 mg/kg/injection, schedule: Q01DX005 (ip), vehicle: saline) 90 % of control; (dose: 200.0 mg/kg/injection, schedule: Q01DX005 (ip), vehicle: saline) 98 % of control.
In the case of `Cc1cc(/C=C2\C=Cc3ccccc32)ccc1N(C)C`, the T/C reads like this: under setting [1], 94 % of control; under setting [2], 93 % of control; under setting [3], 98 % of control.
`CCc1c(CNc2ccc(C(=O)NC(CC(=O)O)C(=O)O)cc2)ccc2nc(N)nc(N)c12` (stereo not drawn): the T/C by setting is: (dose: 0.06 mg/kg/injection, schedule: Q01DX009 (ip), vehicle: saline) 112 % of control; (dose: 0.25 mg/kg/injection, schedule: Q01DX009 (ip), vehicle: saline) 150 % of control and 184 % of control; (dose: 0.5 mg/kg/injection, schedule: Q01DX009 (ip), vehicle: saline) 150 % of control; (dose: 0.5 mg/kg/injection, schedule: Q04DX003 (ip), vehicle: saline) 112 % of control; (dose: 1.0 mg/kg/injection, schedule: Q01DX009 (ip), vehicle: saline) 90 % of control and 91 % of control; (dose: 4.0 mg/kg/injection, schedule: Q04DX003 (ip), vehicle: saline) 154 % of control. In addition, for the setting “dose: 8.0 mg/kg/injection, schedule: Q04DX003 (ip), vehicle: saline”, the T/C was 113 % of control.
Turning to `COC(C)(C)C(Br)C(=O)OCC(=O)c1ccc(Br)cc1` (stereo not drawn), the T/C (dose: 50.0 mg/kg/injection, schedule: Q01DX001 (ip), vehicle: carboxymethylcellulose (CMC)) was 104 % of control; the T/C (dose: 100.0 mg/kg/injection, schedule: Q01DX001 (ip), vehicle: carboxymethylcellulose (CMC)) is 108 % of control; the T/C (dose: 200.0 mg/kg/injection, schedule: Q01DX001 (ip), vehicle: carboxymethylcellulose (CMC)) is 102 % of control; the T/C (dose: 400.0 mg/kg/injection, schedule: Q01DX001 (ip), vehicle: carboxymethylcellulose (CMC)) is 102 % of control.
Take `O=C1c2ccccc2CCCC12OC2c1ccccc1` (stereo not drawn): the T/C was 92 % of control (dose: 75.0 mg/kg/injection, schedule: Q04DX003 (ip), vehicle: Klucel (hydroxypropylcellulose) (HPC)); 93 % of control (dose: 150.0 mg/kg/injection, schedule: Q04DX003 (ip), vehicle: Klucel (hydroxypropylcellulose) (HPC)); 95 % of control (dose: 300.0 mg/kg/injection, schedule: Q04DX003 (ip), vehicle: Klucel (hydroxypropylcellulose) (HPC)).
As to `CC1OC=CC(O)C1O` (stereo not drawn), the T/C under setting [9] was 94 % of control, the T/C under setting [1] is 100 % of control, the T/C under setting [2] was 105 % of control and the T/C under setting [3] was 97 % of control.
In the case of `Cc1cc(C(=O)CCC(=O)O)c(C)s1`, the T/C was 97 % of control (dose: 100.0 mg/kg/injection, schedule: Q01DX009 (ip), vehicle: gum acacia); 102 % of control (dose: 100.0 mg/kg/injection, schedule: Q04DX003 (ip), vehicle: gum acacia); 90 % of control (dose: 200.0 mg/kg/injection, schedule: Q01DX009 (ip), vehicle: gum acacia); 96 % of control (dose: 200.0 mg/kg/injection, schedule: Q04DX003 (ip), vehicle: gum acacia); 101 % of control (dose: 400.0 mg/kg/injection, schedule: Q01DX009 (ip), vehicle: gum acacia); 101 % of control (dose: 400.0 mg/kg/injection, schedule: Q04DX003 (ip), vehicle: gum acacia).
Take `COc1ccc(/C=C2\CCC3C4(CCCC3(C)C2=O)OCCO4)cc1` (stereo not drawn): the T/C is 92 % of control under setting [5] and 101 % of control under setting [6].
For `CCC(C)C(NC(=O)C1CSC(C)(C)N1C=O)C(=O)OC1CCCCC1` (stereo not drawn), the T/C was 98 % of control (dose: 100.0 mg/kg/injection, schedule: Q04DX003 (ip), vehicle: saline with Tween-80); 97 % of control (dose: 200.0 mg/kg/injection, schedule: Q04DX003 (ip), vehicle: saline with Tween-80); 101 % of control (dose: 400.0 mg/kg/injection, schedule: Q04DX003 (ip), vehicle: saline with Tween-80).
As to `CCOC1(CC)CN(Cc2ccccc2)CCO1` (stereo not drawn), the T/C under setting [7] was 103 % of control; the T/C under setting [8] is 93 % of control; the T/C (dose: 400.0 mg/kg/injection, schedule: Q01DX009 (ip), vehicle: Klucel (hydroxypropylcellulose) (HPC)) is 98 % of control.
On to `Cn1c(=O)c(-c2ccccc2)[n+]([O-])c2ccccc21`, for which the T/C under setting [9] is 104 % of control, the T/C under setting [1] was 101 % of control, the T/C under setting [2] is 101 % of control and the T/C under setting [3] is 101 % of control.
Take `O=C(Nc1ccc2c(c1)OCO2)O/N=C1\C(=O)Nc2ccccc21`: the T/C is 103 % of control (dose: 50.0 mg/kg/injection, schedule: Q01DX009 (ip), vehicle: saline) and 100 % of control under setting [4].

(Values after PubChem BioAssay AID248 (DTP/NCI, 2004).)
